“Also recorded” adds a separate entry of the source.
Legend:
[1] = test system: RAW264.7 murine macrophage cells; assay: TNFα production with TLR agonists in RAW264.7 macrophages, POPG treatment; type: cell-based; settings: TLR agonist stimulated RAW264.7 cells, after 24 h of POPG treatment, FIG. 1
Description: (§1) The Journal of Biological Chemistry 294, 4282 […]; Numata, M. & Voelker, D. R. Anti-inflammatory and anti-viral actions of anionic pulmonary surfactant phospholipids. Biochimica et Biophysica Acta (BBA)—Molecular and CEll Biology of Lipids 1867, 159139 (2022) Mueller, M., Brandenburg, K., Dedrick, R., Schromm, A. B. & Seydel, U. Phospholipids Inhibit Lipopolysaccharide (LPS)-Induced Cell Activation: A Role for LPS-Binding Protein. The Journal of Immunology 174, 1091-1096 (2005); K, K. et al. Anionic pulmonary surfactact phospholipids inhibit inflammatory response from alveolar macrophages and U937 cells by binding the lipopolysaccharide-interacting proteins CD14 and MD-2. J Biol Chem 284, 25488-25500 (2009)]. MD-2 and CD14 are molecular components that are responsible for facilitating the downstream intracellular signaling of TLR4 mediated inflammation. POPG binding to MD-2 and CD-14 will disrupt the downstream TLR signaling and prevent the inflammatory response [Berger, M. de Boer, J. D, van der Poll, T., Sterk, P. J. & van der Zee, J. S. Local coagulation activation following bronchial instillation of house dust mite allergen (HDM) and HDM/Lipopolysaccharide (LPS) in mild asthmatics. European Respiratory Journal 40. (2012)].

IL8 = assay: Suppression of inflammation mediated by IL8 (data not shown)
Description: as §1

MD-2 = molecular target: T1, MD-2 (Homo sapiens, UniProt Q9Y6Y9); settings: prevents association with TLR-4; cited from earlier work
T1 sequence (Q9Y6Y9 19-160): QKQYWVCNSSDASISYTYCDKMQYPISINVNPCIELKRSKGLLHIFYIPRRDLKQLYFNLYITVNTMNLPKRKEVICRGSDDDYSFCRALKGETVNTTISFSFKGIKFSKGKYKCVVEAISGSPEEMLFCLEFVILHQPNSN

CD14 = molecular target: T2, CD14 (Homo sapiens, UniProt P08571); settings: prevents association with TLR-4; cited from earlier work
T2 sequence (P08571 20-345): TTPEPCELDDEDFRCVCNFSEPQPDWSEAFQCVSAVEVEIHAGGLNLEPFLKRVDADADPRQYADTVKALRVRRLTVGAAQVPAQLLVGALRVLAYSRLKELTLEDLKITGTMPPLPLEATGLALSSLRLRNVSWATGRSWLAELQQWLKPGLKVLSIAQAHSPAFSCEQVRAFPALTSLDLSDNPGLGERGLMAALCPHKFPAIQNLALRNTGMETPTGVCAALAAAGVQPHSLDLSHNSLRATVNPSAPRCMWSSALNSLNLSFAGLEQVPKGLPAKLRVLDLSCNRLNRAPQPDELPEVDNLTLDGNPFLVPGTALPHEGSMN

CCCCCCCC/C=C\CCCCCCCC(=O)O[C@H](COC(=O)CCCCCCCCCCCCCCC)COP(=O)(O)OCC(O)CO (stereo partly shown) [POPG, palmitoyloleoylphosphatidylglycerol]
TNFα production [1]: reduces TNFα production; also recorded: suppression of inflammation mediated by TNFα | suppression of inflammation mediated by IL8 (IL8): suppression of inflammation | binding to MD-2 (MD-2): preferentially bind | binding to CD14 (CD14): preferentially bind
